In EPA's ToxValDB 9.5 (doi:10.2903/j.efsa.2013.3270):

How the values were obtained:
Anas platyrhynchos = conditions: chronic/long-term
Apis mellifera = conditions: acute, duration: 48 hours, mortality
Colinus virginianus = conditions: acute, oral, mortality
Daphnia magna = conditions: chronic/long-term; duration: 21 days; reproduction
Folsomia candida = conditions: chronic/long-term; duration: 28 days
Oncorhynchus mykiss = conditions: acute; duration: 96 hours; mortality
Pimephales promelas = conditions: chronic/long-term; duration: 35 days; other
Tagia sp. = conditions: acute; duration: 14 days; mortality
Aphidius rhopalosiphi = assay: LR50; higher = less toxic; conditions: not reported; mortality
Typhlodromus pyri = assay: LR50; higher = less toxic; conditions: not reported; mortality

In the case of `COC(=O)c1csc(C)c1S(=O)(=O)NC(=O)n1nc(OC)n(C)c1=O` [Thiencarbazone-methyl], the NOEL (Anas platyrhynchos) is reported as 24 mg/kg-day, the LD50 (Apis mellifera; dermal) is reported as > 200 µg/piece and the LD50 (Apis mellifera; oral, unspecified) is reported as > 199 µg/piece. For the same compound, the LD50 (Colinus virginianus; diet) was > 699 mg/kg-day, the LD50 (Colinus virginianus) was > 2000 mg/kg-day and the NOEC (Daphnia magna) was 3.54 mg/L. The NOEC (Folsomia candida) was 1000 mg/kg, the LC50 (Oncorhynchus mykiss) was > 104 µg/mL and the NOEC (Pimephales promelas) was 4.8 mg/L. The LD50 (Rattus norvegicus; acute, oral, mortality) was > 2000 mg/kg-day, the NOEL (Rattus norvegicus; chronic) was 946 mg/kg-day and the NOAEL (Rattus norvegicus; chronic, duration: 2 years) was 22.8 mg/kg-day. The NOAEL (Rattus norvegicus; subchronic, duration: 90 days, oral) was 24.7 mg/kg-day, the LC50 (Tagia sp.) was > 1000 mg/kg and the LR50 (Aphidius rhopalosiphi) was > 45 g/ha. The LR50 (Typhlodromus pyri) was > 0.45 g/ha.
